Results published in patent publication US20250017889A1, “INHIBITORS OF P1B-TYPE ATPASES” (THE CURATORS OF THE UNIVERSITY OF MISSOURI, priority 2021, published 2025).

Legend:
Assay type in all cases: cell-based
human ATP7A (hATP7A) = target: T1, human ATP7A (hATP7A) (Homo sapiens, UniProt Q04656); experiment: Tyrosinase activation in B16 ATP7A^KO cells transfected with human ATP7A; settings: 10 μM, 24 h, ATP7A^KO melanoma cells
T1 construct: expressed in transfected cells; host or cells: B16 melanoma ATP7A^KO cells (mouse), transient transfection
T1 sequence (Q04656 1-1500): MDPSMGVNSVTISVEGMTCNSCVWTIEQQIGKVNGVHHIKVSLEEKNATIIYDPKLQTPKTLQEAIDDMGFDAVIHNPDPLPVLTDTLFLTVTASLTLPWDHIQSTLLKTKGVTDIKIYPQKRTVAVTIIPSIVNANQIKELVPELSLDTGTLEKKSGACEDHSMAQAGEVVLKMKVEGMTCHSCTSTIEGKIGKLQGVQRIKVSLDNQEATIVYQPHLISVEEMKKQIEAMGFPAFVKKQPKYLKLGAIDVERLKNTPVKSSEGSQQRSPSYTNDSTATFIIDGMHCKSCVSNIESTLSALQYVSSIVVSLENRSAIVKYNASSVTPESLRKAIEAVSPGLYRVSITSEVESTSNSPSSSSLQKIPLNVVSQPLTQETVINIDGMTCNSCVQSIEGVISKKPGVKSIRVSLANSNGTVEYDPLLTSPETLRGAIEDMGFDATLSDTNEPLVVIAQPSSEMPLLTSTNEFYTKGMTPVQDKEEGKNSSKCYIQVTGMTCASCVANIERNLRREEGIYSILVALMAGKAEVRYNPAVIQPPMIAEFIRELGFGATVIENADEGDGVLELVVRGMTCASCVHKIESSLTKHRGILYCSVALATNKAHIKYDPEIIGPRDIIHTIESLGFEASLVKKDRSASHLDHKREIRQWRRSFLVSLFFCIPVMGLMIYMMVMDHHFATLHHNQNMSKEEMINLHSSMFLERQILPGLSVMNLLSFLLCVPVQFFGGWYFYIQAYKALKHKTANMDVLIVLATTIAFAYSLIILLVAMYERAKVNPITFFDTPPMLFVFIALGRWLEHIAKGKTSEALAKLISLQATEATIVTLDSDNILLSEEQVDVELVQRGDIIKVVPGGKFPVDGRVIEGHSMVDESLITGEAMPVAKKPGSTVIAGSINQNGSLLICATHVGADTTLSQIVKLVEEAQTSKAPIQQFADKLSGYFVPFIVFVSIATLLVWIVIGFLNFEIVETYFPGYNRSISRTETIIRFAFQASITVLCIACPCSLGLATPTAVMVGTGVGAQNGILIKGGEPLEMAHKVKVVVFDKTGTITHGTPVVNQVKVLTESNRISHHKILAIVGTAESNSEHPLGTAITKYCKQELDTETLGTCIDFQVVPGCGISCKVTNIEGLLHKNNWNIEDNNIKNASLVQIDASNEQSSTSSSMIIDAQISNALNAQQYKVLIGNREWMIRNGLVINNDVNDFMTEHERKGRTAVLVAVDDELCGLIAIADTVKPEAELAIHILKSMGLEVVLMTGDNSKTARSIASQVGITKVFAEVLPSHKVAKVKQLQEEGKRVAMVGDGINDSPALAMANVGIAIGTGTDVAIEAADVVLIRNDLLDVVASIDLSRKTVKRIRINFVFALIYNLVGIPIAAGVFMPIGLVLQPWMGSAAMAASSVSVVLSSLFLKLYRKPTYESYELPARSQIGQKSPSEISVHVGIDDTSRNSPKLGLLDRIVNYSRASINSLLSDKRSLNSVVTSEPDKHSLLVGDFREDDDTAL
Source text: Prior studies have shown that exogenously expressed ATP7B can activate tyrosinase in cells lacking ATP7A. For these studies, a B16 melanoma cell model was used in which tyrosinase activity can be detected by in situ oxidation of L-DOPA to DOPAchrome (10A). As shown earlier, B16 cells deleted for the ATP7A gene (ATP7A^KO) completely lack tyrosinase activity (10B). […] Quantification of tyrosinase activity in these cells is shown (10G). Data represent mean±SEM; ****p<0.0001 of three independent replicates.

[1] = system: wild type S. aureus (CopA and CopB); experiment: Growth of wild type methicillin-resistant Staphylococcus aureus
Experimental: Methicillin-resistant Staphylococcus aureus (MRSA) is a human pathogen that expresses two Cu-transporting P1B-type ATPases, CopA and CopB, which are known to enhance the virulence of this bacterium. 19A illustrates CopA and CopB copper exporters at the plasma membrane of S. aureus. […] The growth of the ΔcopA/ΔcopB strain was inhibited by approximately 50% when copper alone (50 μM) was added to the culture medium.
Wild type MRSA expresses two copper-exporting P1B-type ATPases, CopA and CopB that are required for copper tolerance (FIG. 19A). […] The same experiment was performed using MRSA in which both CopA and CopB genes were deleted (ΔcopA/ΔcopB). Consistent with the known role of CopA and CopB in copper tolerance, the growth of the ΔcopA/ΔcopB strain was inhibited by approximately 50% when copper alone (50 μM) was added to the culture medium (FIG. 19C).

[2] = system: Cu^S cells complemented with ATP7A; experiment: Copper toxicity in Cu^S cells complemented with ATP7A; settings: 10 μM, 50% cytotoxic copper concentration
Source text: 8A illustrates a copper sensitive fibroblast cell line (Cu^S) generated by deleting genes encoding ATP7A, metallothionein-I (MT-I) and metallothionein-II (MT-II). Cu^S cells cannot be propagated in regular medium (DMEM) unless a copper chelator (BCS) is supplied to the medium.
Cu^S cell lines were derived that were complemented by either ATP7A, ATP7B or MT-II.

4T1, B16 and LLC cells = experiment: Sensitivity of cells to elevated copper concentrations; settings: 10 μM, 48 h
Source text: It is well-known that copper export via ATP7A is the major mechanism by which cells are protected against rising copper levels, which is facilitated by Cu-stimulated trafficking of ATP7A from the trans-Golgi to the plasma membrane. Therefore, a predicted consequence of an ATP7A inhibitor would be an increase of the sensitivity of cells to high copper concentrations.

N#CC(C(=O)Nc1cccc(C(F)(F)F)c1)C(=S)Nc1ccccc1Cl (stereo not drawn) [MKV3]
activation of tyrosinase activity by ATP7A (human ATP7A (hATP7A)): prevented activation of tyrosinase activity | sensitivity of wild type S. aureus to silver [1]: increases the sensitivity | growth of wild type S. aureus ([1]; MKV3 0.5 μM alone): not affected | growth of wild type S. aureus ([1]; MKV3 0.5 μM and copper 50 μM in combination): significant inhibition of growth | copper toxicity [2]: enhanced copper toxicity | copper toxicity (4T1, B16 and LLC cells): strongly augmented copper toxicity
